From ChEMBL document CHEMBL1201862, “PubChem BioAssay data set” (2004)
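These data come from cells grown in 96-well plates and exposed to compound for 48 hours at five concentrations. Here, GI50 denotes the concentration required for 50% inhibition of growth.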 Calls of active or inactive are those of the source. No stated cut-off is given here; in the data, active = GI50 up to about 1.1 µM and inactive = higher.

Experiments:
Assay in all cases: NCI-60 cell line screen, 48 h
DLD-1 = tested on: DLD-1
DMS-273 = tested on: DMS-273
KM-20L2 = tested on: KM-20L2
M19-MEL = tested on: M19-MEL
SNB-78 = tested on: SNB-78
XF498 = tested on: XF498
HOP-18 = tested on: HOP-18
LXFL 529 = tested on: LXFL 529
RXF 631 = tested on: RXF 631

Compound	GI50 (DLD-1)	GI50 (DMS-273)	GI50 (KM-20L2)	GI50 (M19-MEL)	GI50 (SNB-78)	GI50 (XF498)	GI50 (HOP-18)	GI50 (LXFL 529)	GI50 (RXF 631)
CC(=O)C1CCN(c2ccccc2)C1 (stereo not drawn)	> 100 µM (inactive)	> 100 µM (inactive)	> 10 µM (inactive)	> 100 µM (inactive)	> 100 µM (inactive)	> 100 µM (inactive)	–	–	–
O=C1CSc2cc([N+](=O)[O-])ccc2N1	> 100 µM (inactive)	> 100 µM (inactive)	> 100 µM (inactive)	> 100 µM (inactive)	> 100 µM (inactive)	> 100 µM (inactive)	> 100 µM (inactive)	> 100 µM (inactive)	> 100 µM (inactive)
C[C@@H](NS(=O)(=O)c1ccc(NC(=O)c2ccccc2)cc1)C(=O)O	> 100 µM (inactive)	> 100 µM (inactive)	> 100 µM (inactive)	> 100 µM (inactive)	–	> 100 µM (inactive)	> 100 µM (inactive)	> 100 µM (inactive)	–
CC(C)C(=O)N1C(=O)O[C@@H](c2ccccc2)[C@H]1C	> 100 µM (inactive)	> 100 µM (inactive)	> 100 µM (inactive)	> 100 µM (inactive)	> 100 µM (inactive)	> 100 µM (inactive)	> 100 µM (inactive)	> 100 µM (inactive)	–
CC([C@H]1CCC2C3CCC4CC5(CC[C@]4(C)C3CC[C@@]21C)c1ccccc1C(=O)N5C)N(C)C (stereo partly drawn)	36.5 µM (inactive)	12.9 µM (inactive)	–	17 µM (inactive)	–	–	> 100 µM (inactive)	32.2 µM (inactive)	–
O=C(COc1ccccc1)NS(=O)(=O)c1ccccc1	> 100 µM (inactive)	–	> 100 µM (inactive)	> 100 µM (inactive)	> 100 µM (inactive)	–	> 100 µM (inactive)	> 100 µM (inactive)	> 100 µM (inactive)
COC(=O)C1CCC2(C)[C@H](CCC3O[C@]32C)[C@@]1(C)CC(=O)c1ccoc1 (stereo partly drawn)	> 100 µM (inactive)	> 100 µM (inactive)	> 100 µM (inactive)	> 100 µM (inactive)	> 100 µM (inactive)	20.4 µM (inactive)	–	40.6 µM (inactive)	–
N#CC(C(=O)CCC(=O)Nc1ccc(Cl)cc1)c1ccc(Cl)cc1 (stereo not drawn)	71.3 µM (inactive)	> 100 µM (inactive)	11.5 µM (inactive)	> 100 µM (inactive)	> 100 µM (inactive)	> 100 µM (inactive)	97.3 µM (inactive)	9.33 µM (inactive)	> 100 µM (inactive)
C[C@H](C(=O)O)C(=O)NC(=O)N(Cc1ccccc1)N=O	> 100 µM (inactive)	> 100 µM (inactive)	> 100 µM (inactive)	> 100 µM (inactive)	> 100 µM (inactive)	> 100 µM (inactive)	0.0525 µM (active)	> 100 µM (inactive)	–
CCC(=O)c1c(NOC2OCC(OC(C)=O)C(OC(C)=O)C2OC(C)=O)nc(OC)n(C)c1=O (stereo not drawn)	> 100 µM (inactive)	> 100 µM (inactive)	> 100 µM (inactive)	> 100 µM (inactive)	> 100 µM (inactive)	> 100 µM (inactive)	< 0.01 µM (active)	> 100 µM (inactive)	–
CC(=O)NNc1nc(C)c(C(/C=C/c2ccc(Cl)cc2)=N\N=C(N)N)s1	> 100 µM (inactive)	> 100 µM (inactive)	> 100 µM (inactive)	> 100 µM (inactive)	> 100 µM (inactive)	> 100 µM (inactive)	–	> 100 µM (inactive)	> 100 µM (inactive)
O=S(=O)(/C=C/c1ccc(Cl)cc1Cl)Cc1ccccc1CS(=O)(=O)/C=C/c1ccc(Cl)cc1Cl	29 µM (inactive)	10.2 µM (inactive)	> 100 µM (inactive)	20.9 µM (inactive)	> 100 µM (inactive)	32.9 µM (inactive)	–	43.1 µM (inactive)	–
CCN(CC)CC(=O)NC1c2ccccc2Oc2c(C)cccc21 (stereo not drawn)	81.3 µM (inactive)	> 100 µM (inactive)	55.7 µM (inactive)	> 100 µM (inactive)	> 100 µM (inactive)	40 µM (inactive)	–	> 100 µM (inactive)	–
CC(=O)NC1=C(C)C(=O)c2c(nc3n2CCC3OC(=O)CCl)C1=O (stereo not drawn)	12.9 µM (inactive)	17.2 µM (inactive)	–	12.5 µM (inactive)	2.96 µM (inactive)	–	–	2.11 µM (inactive)	–
O=C1C2C(C(=O)N1c1ccccc1)C1(c3ccccc3)OC2(c2ccccc2)c2ccccc21 (stereo not drawn)	> 100 µM (inactive)	> 100 µM (inactive)	> 100 µM (inactive)	> 100 µM (inactive)	–	–	> 100 µM (inactive)	> 100 µM (inactive)	> 100 µM (inactive)
CN(C)C(=S)OC(Cn1cncn1)c1ccc(Cl)cc1Cl (stereo not drawn)	> 100 µM (inactive)	> 100 µM (inactive)	> 100 µM (inactive)	> 100 µM (inactive)	–	–	> 100 µM (inactive)	> 100 µM (inactive)	> 100 µM (inactive)
COC(=O)C1CC(=O)O[C@H]1c1ccc(OC)c(OC)c1 (stereo partly drawn)	> 100 µM (inactive)	> 100 µM (inactive)	> 100 µM (inactive)	> 100 µM (inactive)	> 100 µM (inactive)	> 100 µM (inactive)	> 100 µM (inactive)	> 100 µM (inactive)	> 100 µM (inactive)
CN(C(=O)C12C3C4C1C1C2C3C41C(=O)C(C)(C)C)C(C)(C)C (stereo not drawn)	> 100 µM (inactive)	> 100 µM (inactive)	> 100 µM (inactive)	> 100 µM (inactive)	> 100 µM (inactive)	> 100 µM (inactive)	–	> 100 µM (inactive)	> 100 µM (inactive)
O=S(O)CCCCSSCCCCS(=O)(=O)S	> 100 µM (inactive)	50.9 µM (inactive)	> 100 µM (inactive)	12.1 µM (inactive)	35.1 µM (inactive)	15.3 µM (inactive)	84.3 µM (inactive)	22.2 µM (inactive)	51.9 µM (inactive)
CC1CC(C)CC(C)C(O)/C(C#N)=C/C=C/CC(C2CCCC2C(=O)O)OC(=O)CC(O)C(C)C1 (stereo not drawn)	< 0.0122 µM (active)	0.0164 µM (active)	0.0362 µM (active)	0.0202 µM (active)	0.0223 µM (active)	< 0.0164 µM (active)	0.0189 µM (active)	< 0.01 µM (active)	0.0317 µM (active)
COc1ccc2cc3[n+](cc2c1OC)CCc1cc2c(cc1-3)OCO2 [BERBERINE CHLORIDE]	–	10.3 µM (inactive)	28.2 µM (inactive)	5.56 µM (inactive)	53.8 µM (inactive)	7.82 µM (inactive)	106 µM (inactive)	–	–
Cc1ccc(S(=O)(=O)N/N=C/c2oc(-c3ccccc3Cl)c(-c3ccccc3Cl)c2[N+](=O)[O-])cc1	17.1 µM (inactive)	–	15.4 µM (inactive)	23.3 µM (inactive)	–	–	–	–	19.3 µM (inactive)
CCCCCCC1=NOC(C(c2cc[nH]c2)N(C)[C@H](C(=O)OC)C(C)C)C1 (stereo partly drawn)	34.1 µM (inactive)	25.8 µM (inactive)	39 µM (inactive)	32 µM (inactive)	21.3 µM (inactive)	35.3 µM (inactive)	58.1 µM (inactive)	46.8 µM (inactive)	36.6 µM (inactive)
COc1cc2cc3c4c(cc(OC)c(OC)c4c2cc1OC)CCN3	26.1 µM (inactive)	33.7 µM (inactive)	27.5 µM (inactive)	12.9 µM (inactive)	> 100 µM (inactive)	> 100 µM (inactive)	> 100 µM (inactive)	58.6 µM (inactive)	–
N#CC12Cc3ccc4c(c3-c3cccc(c31)CCN2C(=O)c1ccccc1)OCO4 (stereo not drawn)	> 100 µM (inactive)	> 100 µM (inactive)	> 100 µM (inactive)	> 100 µM (inactive)	> 100 µM (inactive)	45 µM (inactive)	> 100 µM (inactive)	> 100 µM (inactive)	–
COC(=O)CC(C(C(C)=O)C(=O)OCc1ccccc1)N1C(=O)OCC1c1ccccc1 (stereo not drawn)	47.2 µM (inactive)	> 100 µM (inactive)	> 100 µM (inactive)	> 100 µM (inactive)	–	53.5 µM (inactive)	–	83.2 µM (inactive)	> 100 µM (inactive)
COC(=O)C12OCC34C(CC5C(C)C6=CC(=O)OC6=CC5(C)C3C(O)C1O)OC(=O)C(O)C24 (stereo not drawn)	–	0.178 µM (active)	0.957 µM (active)	0.192 µM (active)	0.474 µM (active)	–	0.676 µM (active)	0.101 µM (active)	–
COC(=O)C(=O)C(C(=O)C(=O)Nc1cccc(C(C)=O)c1)c1nc2ccccc2nc1O (stereo not drawn)	> 100 µM (inactive)	> 100 µM (inactive)	> 100 µM (inactive)	> 100 µM (inactive)	–	–	> 100 µM (inactive)	> 100 µM (inactive)	> 100 µM (inactive)
O=C(O)C[C@@H](Cl)[C@H](NC(=O)OCc1ccccc1)C(=O)O	> 100 µM (inactive)	> 100 µM (inactive)	> 100 µM (inactive)	> 100 µM (inactive)	> 100 µM (inactive)	> 100 µM (inactive)	> 100 µM (inactive)	> 100 µM (inactive)	–
